Measured values from US12564578B2, “Collagen P4H1 inhibitor and its use” (University of Kentucky Research Foundation, priority 2019, dated 2026).
pIC50: −log10 of the molar value. “Also recorded” adds a separate entry of the source. Like-named read-outs stand apart in the source and are kept apart here.

What was measured:
[1] = tested on: collagen hydroxylation in chicken tendon cells; settings: collagen hydroxylation assay, doi: 10.1042/bj2610127, read-out: IC50 reported in previous research; cited from earlier work
human C-P4H1 = target: T1, human C-P4H1 (Homo sapiens, UniProt P13674); assay: Human C-P4H1 activity measured with Succinate-Glo Hydroxylase assay (also high-throughput screening); format: biochemical; settings: for inhibition of C-P4H1 activity (luminescence): different concentrations, 200 nM C-P4H1
T1 construct: made in house; host or cells: HEK-293FT
T1 sequence (P13674 18-534): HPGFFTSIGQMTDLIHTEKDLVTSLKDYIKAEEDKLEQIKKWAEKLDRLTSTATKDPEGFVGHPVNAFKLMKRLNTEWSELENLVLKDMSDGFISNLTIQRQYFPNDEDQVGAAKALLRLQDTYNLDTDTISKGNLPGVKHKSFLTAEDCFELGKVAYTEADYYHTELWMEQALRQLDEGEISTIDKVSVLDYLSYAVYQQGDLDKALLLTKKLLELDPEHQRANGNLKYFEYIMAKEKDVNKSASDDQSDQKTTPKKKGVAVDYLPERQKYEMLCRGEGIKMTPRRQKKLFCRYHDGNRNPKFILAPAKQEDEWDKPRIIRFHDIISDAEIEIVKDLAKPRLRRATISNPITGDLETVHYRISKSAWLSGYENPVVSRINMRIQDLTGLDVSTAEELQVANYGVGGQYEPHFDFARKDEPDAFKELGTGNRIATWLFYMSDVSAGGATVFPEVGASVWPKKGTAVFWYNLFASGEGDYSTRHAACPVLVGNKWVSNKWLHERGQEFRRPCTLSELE
T1 sequence (P07237 18-508 partner): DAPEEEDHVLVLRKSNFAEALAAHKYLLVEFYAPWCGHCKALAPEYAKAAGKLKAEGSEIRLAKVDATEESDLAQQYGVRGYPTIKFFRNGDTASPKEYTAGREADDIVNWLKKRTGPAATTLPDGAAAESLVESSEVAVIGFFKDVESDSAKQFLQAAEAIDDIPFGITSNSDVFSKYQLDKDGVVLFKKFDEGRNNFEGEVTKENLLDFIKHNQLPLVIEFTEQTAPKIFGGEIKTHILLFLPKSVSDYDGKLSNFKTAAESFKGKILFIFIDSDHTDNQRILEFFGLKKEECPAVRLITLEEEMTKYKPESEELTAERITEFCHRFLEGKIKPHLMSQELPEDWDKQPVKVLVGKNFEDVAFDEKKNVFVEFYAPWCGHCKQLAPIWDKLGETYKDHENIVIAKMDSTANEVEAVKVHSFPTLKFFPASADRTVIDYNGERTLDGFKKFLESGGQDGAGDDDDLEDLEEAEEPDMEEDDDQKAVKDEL
Description: Human CP4H1 activity Assays were carried out at room temperature in 10 mM HEPES buffer containing 10 mM NaCl, pH 7.4. […] FeSO4 was prepared freshly in 10 mM HCl prior to each time use. Following 1 hour reaction, the reaction solution was subjected to Hydroxyproline Colorimetric Assay and Succinate-Glo™ Hydroxylase assay respectively.
(§1) Succinate-Glo™ Hydroxylase assay was ran following the protocol of Succinate-Glo™ JmjC Demethylase/Hydroxylase Assay (Promega, V7991). Briefly, following the human CP4H1 assay, 10 μL Succinate Detection Reagent I was added, including the enzymes 3-oxoacid CoA-transferase (SCOT) and succinyl CoA ligase (SCS), and acetoacetyl-CoA. See, TM488 Technical Manual and U.S. Pat. No. 9,677,117 for “Bioluminescent Succinate Detection Assay,” issued Jun. 13, 2017, assigned to Promega Corporation. Mix assay plate with a plate shaker for 30 seconds, and incubate at room temperature for 60 minutes. Add 20 μl of Succinate Detection Reagent II, including the enzyme luciferase, to each well of the assay plate to generate light from the ATP. See, Id. Mix assay plate with a plate shaker for 30 seconds, and incubate at room temperature for 10 minutes. Measure the luminescence with a plate-reading luminometer (BioTek).
[…] Then mix with peptide substrate (GlyProProGly(SEQ ID NO:1)OEt), 500 μM), FeSO4 (50 μM), catalase (0.1 mg/mL), ascorbate (2 mM), and α-ketoglutarate (100 μM) to react 1 hour at room temperature. The reaction volume was usually 10 μL. After the reaction, Succinate-Glo™ Hydroxylase assay was conducted in the corresponding 96-well or 384-well plate. 50 μM DHB was set as a positive control in each plate.

[2] = Succinate-Glo Hydroxylase assay in the absence of C-P4H1 (counter test); format: biochemical; settings: no C-P4H1 in the reaction
Description: as §1
To further evaluate reliability of the Succinate-Glo™ assay, varied concentration of peptide substrate GPPG (FIG. 3A) and hydroxyl donor α-KG (FIG. 3B) were tested in the hydroxylation reaction, respectively. Increased concentration of GPPG and α-KG induced luminescence assay in a dose dependent manner. DHB has been identified as a C-P4Hs' inhibitor^35. To determine whether this assay can evaluate c-P4H1 inhibitor's activity, C-P4H1 was incubated with different concentration of DHB for 30 min at 4° C., and then the hydroxylation reaction and the bioluminescence-based assay were performed. […] The IC50 was detected at around 20 μM, which is much lower than the IC50 value of 0.1 mM reported in the previous research with the collagen hydroxylation assay in the chicken tendon cells (doi: 10.1042/bj2610127); this is probably due to the sensitivity difference between two methods. In the absence of C-P4H1, DHB had little effect on the Succinate-Glo™ assay, indicating the inhibitory effect is specific on the prolyl hydroxylation reaction (FIG. 3D).

HS-578T cells [3] = assay: 3D culture assay, invasive branching; format: cell-based; settings: 10 μM and 20 μM, 24 hours
Description: (§2) 3D laminin-rich extracellular matrix (3D lrECM) on-top cultures were prepared by trypsinization of cells from tissue culture plastic^25. Growth Factor Reduced BD Matrigel™ was plated on the bottom of the cell culture dish. MDA-MB-231 and HS-578 cells were seeded on the top of the matrigel layer, and additional medium containing 10% Matrigel was added on the top.
(§3) All the 3D culture assay images were acquired by Nikon microscope and were quantified with the Nikon analysis software. Results are reported as mean±S.E.M; the significance of difference was assessed by independent Student's t-test. P<0.05 represents statistical significance and P<0.01 represents sufficiently statistical significance. All reported P values were 2-tailed.
(§4) It has been shown that silence of P4HAs suppress invasive tumor growth in three-dimensional (3D) tissue culture model^19,25. 3D culture model has been widely used to evaluate drug effect^38. To further evaluate the inhibitory ability of these chemicals in tumor progression, triple-negative breast cancer cell lines, MDA-MB-231 cells and HS-578T cells were treated with Silodosin and Ticlopidine in 3D culture^39. […] Invasive branching structure of cancer cells in 3D culture is associated with tumor invasion and aggressive phenotypes^15, 19, 25. […]

MDA-MB-231 cells = assay: 3D culture assay, invasive branching / invasive growth; format: cell-based; settings: MDA-MB-231, 10 μM and 20 μM, 48 hours
Description: as §2, §3, §4

HS-578T cells [4] = assay: Western blot of type I collagen in conditioned medium of treated cells; format: cell-based; settings: 48 hours, 10 μM and 20 μM
Description: Chemical treated Hs578 cells were lysed in 2% sodium dodecyl sulfate (SDS) in phosphate-buffered saline (PBS) buffer containing phosphatase and protease inhibitor cocktails (EMD Millipore, 539131). Protein concentration was measured using Pierce™ BCA Protein Assay Kit (Thermo Fisher Scientific, 23227). Equal amounts of protein lysates or cell conditional medium (normalized to cell numbers) were subjected to SDS gel electrophoresis, immunoblotted with primary antibodies (Anti-Collagen I antibody, ab34710; Anti-tubulin, Cell Signaling 2148)) and DyLight 680/800-conjugated secondary antibodies (DyLight 680-conjugated goat anti-rabbit IgG secondary antibody Thermo Fisher Scientific, 35569; DyLight 800-conjugated goat anti-mouse IgG secondary antibody Thermo Fisher Scientific, SA5-35521).
To determine whether the identified potential inhibitors suppress the C-P4H1 activity in tissue culture, HS-578T cells were treated with Silodosin or Ticlopidine for 48 hours. Since collagen maturation and secretion was regulated by the C-P4H1, conditioned media were collected from control and Silodosin- or Ticlopidine-treated cells for western blot analysis.

Row | pIC50 (human C-P4H1; 0.1 μM WT C-P4HA1 (FIG. 3E), read-out: IC50 of wild type C-P4H1 inhibition) | pIC50 (human C-P4H1; C-P4H1 200 nM, preincubated 30 min at 4° C. (FIG. 3C), read-out: IC50 of C-P4H1 inhibition) | effect on the luminescence assay in the absence of C-P4H1 ([2]; listed as Silodocin) | SMILES | pIC50 [1] | inhibition of C-P4H1 activity (luminescence) (human C-P4H1) | effect on the luminescence assay in the absence of C-P4H1 [2] | invasive branching structures in 3D culture (HS-578T cells [3]) | kinetic property of C-P4H1 inhibition (human C-P4H1; dose curves, FIG. 4D and 4F) | invasive branching structures in 3D culture (MDA-MB-231 cells) | protein levels of type I collagen in the conditioned media (HS-578T cells [4])
1 | ~4.40 | ~4.70 | – | CCOC(=O)c1ccc(O)c(O)c1 [DHB, ethyl-3,4-dihydroxybenzoic acid] | 4.00 | significantly reduced luminescence values | little effect; also recorded: did not inhibit | – | – | – | –
2 | – | – | did not inhibit | C[C@H](Cc1cc2c(c(C(N)=O)c1)N(CCCO)CC2)NCCOc1ccccc1OCC(F)(F)F [Silodosin] | – | inhibited C-P4H1 activity in a dose-dependent manner | little effect | significantly reduced invasive branching structures | faster kinetic property compared to ticlopidine | significantly reduced invasive branching structures | reduced protein levels of type I collagen
